Values quoted from earlier work, collected in US7122568B1, “Use of low-dose PDT to inhibit restenosis” (QLT, Inc., priority 1999, dated 2006).
Like-named read-outs stand apart in the source and are kept apart here.

Columns and labels:
porcine model = details: 0.3 mg/kg injected four hours prior to endothelial denudation; external irradiation 20 J/cm2 of 652 nm
[1] = test system: normal rabbit carotid arteries; details: systemic administration 7 days after denudation, external irradiation two days later; five weeks after PDT
[2] = test system: rabbit arteries injured by endothelial denudation; details: systemic administration after injury, 120 or 240 J/cm2 irradiation 24 hours later
[3] = test system: normal rat carotid arteries; details: systemic administration, external irradiation; PDT on days 2 and 7 after denudation, read on day 14

Oc1cccc(-c2c3nc(c(-c4cccc(O)c4)c4ccc([nH]4)c(-c4cccc(O)c4)c4nc(c(-c5cccc(O)c5)c5ccc2[nH]5)CC4)C=C3)c1 [m-THPC, metatetrahydroxyphenyl-chlorin]
effect on intimal area (porcine model): significant increase of intimal area

Photofrin™
effect on induced IH response (ratio of IH area to normalized area enclosed by the IEL) [1]: effective in reducing the induced IH response | effect on IH [2]: prevention of IH

benzoporphyrin derivative monoacid ring A [BPD-MA]
effect on IH (rat carotid artery; 0.5 μg/ml local delivery, 50 and 100 J/cm2 of 690 nm (Stages I and II)): little effect on reducing IH | effect on IH (rat carotid artery; 0.5 μg/ml local delivery, 100 J/cm2 of 690 nm (Stage II)): induction of significant IH | effect on IH (rat carotid artery; 25 μg/ml local delivery, 50 J/cm2 of 690 nm (Stage III)): inhibit IH | photothrombosis (rat carotid artery; 25 μg/ml local delivery, 100 J/cm2 of 690 nm (Stage IV)): induce photothrombosis

chloraluminum-sulfonated phthalocyanine [CASPc]
effect on induced IH response [3]: effective in inhibiting the induced IH response
